{"source": "patent US8519183B2", "about": "“Uses for amino acid anticonvulsants” (Research Corporation Technologies, Inc., priority 2000, dated 2013)", "key": {"[1]": {"test_system": "ICR derived male or female mice", "test": "formalin induced hind paw licking", "assay_type": "in vivo", "conditions": "300 mg/kg PO", "procedure": "The degree of pain is determined by measuring the decrease in the amount of time the animal spends licking the formalin-injected paw after administration of the drug.\nReduction of the induced hind paw licking time recorded during the following 20 to 30 minutes period by 50 percent or more (50%) indicated analgesic activity."}, "[2]": {"test_system": "ICR derived male or female mice", "test": "Analgesia, Acetic Acid Writhing", "assay_type": "in vivo", "conditions": "100 mg/kg PO", "from_the_text": "In the first animal study in Example 1, the degree of pain experienced by the mice after injection by acetic acid is seen by the number of writhes. If the mice experience no pain, there is no writhing.\nThe protocol is based on the acetic acid writhing test in mice, developed by R. Koster, et al. Fed. Proc, 18, 412 […], and referred to a Koster test and Hunskarai, S., et al., J. Neuroscience Meth. 14: 69-76, 1985.\nReduction in the number of writhes by 50 percent or more (≧50%) per group of animals observed during the 5 to 10 minute period after acetic acid administration, relative to a vehicle treated control group, indicated analgesic activity."}, "[3]": {"biological_target": "T1, serotonin 5-HT1A receptor (Rattus norvegicus, UniProt P19327)", "T1 construct": "from tissue; host or cells: living Long Evans derived rat (in vivo)", "T1 sequence (P19327 1-422)": "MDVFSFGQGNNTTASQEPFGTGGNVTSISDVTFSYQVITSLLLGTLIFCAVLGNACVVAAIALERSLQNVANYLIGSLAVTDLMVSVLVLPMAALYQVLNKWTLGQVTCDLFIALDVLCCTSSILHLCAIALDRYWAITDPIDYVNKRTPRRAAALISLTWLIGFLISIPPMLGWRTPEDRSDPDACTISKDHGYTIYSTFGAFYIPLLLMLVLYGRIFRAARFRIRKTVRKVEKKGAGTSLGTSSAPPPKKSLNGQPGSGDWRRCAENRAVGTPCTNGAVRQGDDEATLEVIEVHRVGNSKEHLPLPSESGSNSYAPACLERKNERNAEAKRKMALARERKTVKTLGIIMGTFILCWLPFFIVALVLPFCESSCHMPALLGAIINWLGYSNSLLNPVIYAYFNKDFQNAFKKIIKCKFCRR", "test": "5-MeODMT-induced head twitch", "assay_type": "in vivo, rats", "conditions": "10 mg/kg PO, 3 rats", "procedure": "Test substance was administered PO (30 mg/kg) to a group of 3 Long Evans derived male or female rats weighing 150±20 gms one hour before injection of 5-MeODMT (5-methoxy-N,N-dimethyltryptamine, 3 mg/kg IP)."}, "[4]": {"test_system": "male ICR mice", "test": "radiant heat induced tail flick response", "assay_type": "in vivo", "procedure": "Groups of 4 male ICR mice weighing 22±2 gms were employed. A dose (30 mg/kg) of test compound dissolved in a vehicle of saline was administered intraperitoneally. The control group received vehicle alone. At pretreatment (0 minute) a focused beam of radiant heat was applied to the middle dorsal surface of the tail to elicit a tail flick response within 6-7.5 seconds in pre-treated animals. A maximum cut-off time of 15 seconds was set. The time required to elicit a pain response was recorded for each animal at 0 and 30 minutes following administration of test compound. Prolongation by 50 percent or more (≧50%) of the time required to elicit a tail flick indicated analgesic activity."}, "[5]": {"biological_target": "NMDA receptor (Mus musculus, UniProt P35438)", "test": "NMDA receptor agonism/antagonism after ICVT administration", "conditions": "ICVT 1 μg/mouse, N 3"}, "[6]": {"test_system": "Holtzman male rats", "test": "NMDA Induced Hyperalgesia (thermal escape latency)", "assay_type": "in vivo", "procedure": "Holtzman male rats weighing 275 to 325 grams were prepared with lumbar intrathecal catheters under isoflurane anesthesia. The catheters were externalized on the back of the head. Four to five days after implant, the animals were employed.\nNMDA administration was accomplished using a gear driven microinjection syringe connected to the spinal catheter by a length of calibrated PE-90 tubing. The catheter plug was immediately replaced to avoid back flow and the rat was replaced in its testing box.\nA modified Hargreaves box was used which allows the direction of a focused light beam on the underface of the paw through a glass surface upon which the rat stands. Surface temperature was maintained at 30° C. Withdrawal of the paw was taken as the response. Lack of response within twenty seconds was cause to terminate the test and assign that score.\nThe rats were placed on the thermal escape box and allowed to acclimate for 30 minutes prior to testing. A measurement was taken for each hindpaw to establish an average baseline latency (counted as time=0). (2R)-2-(acetylamino)-N-[(4-fluorophenyl)methyl]-3-methoxypropanamide solution, that is, test product in this experiment, was given at an intrathecal dose of 1 μg/10 μl 10 minutes prior to intrathecal NMDA. A control group was given an identical amount of saline 10 minutes prior to intrathecal NMDA. Measurements were then made at 15, 30, 60, 120, 240 and 360 minutes after intrathecal NMDA injection. General behavior assessments were made during each period of observation and include: tactile allodynia (vocalization/agitation induced by light touch applied to the body surface), spontaneous vocalization, biting and chewing of body surface, loss of hind limb placing and stepping reflex, loss of hind limb weight bearing and loss of righting reflex."}, "[7]": {"test_system": "Sprague Dawley male rats", "test": "general behavioral assessment at intraperitoneal doses of 30 to 100 mg/kg", "assay_type": "in vivo", "from_the_text": "General behavioral assessments were made during each period of observation and include: tactile allodynia (vocalization/agitation induced by light touch applied to the body surface), spontaneous vocalization, biting and chewing of body surface, loss of hind limb placing and stepping reflex, loss of hind limb weight bearing, and loss of righting reflex. All assessments, were noted as “present”, “absent” or ranked according to a graded scale.\nFour rats were examined at intraperitoneal (IP) doses of 30 to 100 mg/kg."}, "[8]": {"test_system": "Sprague Dawley male rats", "test": "Chung model of neuropathy, tactile threshold (von Frey hairs)", "assay_type": "in vivo", "procedure": "Sprague Dawley male rats weighing 275 to 325 grams was used in this experiment. In this experiment, the response to neuropathic pain was determined. The neuropathic preparation used to induce an allodynic state is the surgical procedure described by Kim and Chung in Pain, 1992, 50, 355-363 (1992) and outlined in Chaplain, et al. in J. Neurosci. Meth., 1994, 53, […]. Briefly, the left L5 and L6 spinal nerves were isolated adjacent to the vertebral column and ligated with 6-0 silk suture distal to the dorsal root ganglion under isoflurane anesthesia. The rats were allowed a minimum 7 day postoperative recovery period before placement in the study.\nTesting groups consisted of 6 rats per group. Each group received test article, (2R)-2-acetyl-amino)-N-[(4-fluorophenyl)methyl]-3-methoxypropanamide (hereinafter “test article”), in one of three concentrations delivered intraperitoneally; the high concentration was 50 mg/kg, the medium concentration was 30 mg/kg and the low concentration was 20 mg/kg. One group of 6 rats received saline control solution at a volume equal to that used for test article.\nTo assess tactile thresholds, rats were placed in a clear plastic, wire mesh-bottomed cage, divided into individual compartments. Animals were allowed to accommodate and then baseline thresholds were taken prior to drug treatment. To determine the 50% mechanical threshold for paw withdrawal, von Frey hairs were applied to the plantar mid-hindpaw, avoiding the tori (footpads). The eight von Frey hairs used are designated by [log(10*force required to bend hair, mg)] and range from 0.4-15.1 grams. Each hair was pressed perpendicularly against the paw with sufficient force to cause slight bending, and held for approximately 6-8 seconds. […] Stimuli were presented successively until either six data points were collected, or the maximum or minimum stimulus was reached. […] If a change in response occurred, either “−” to “+” or “+” to “−”, causing a change in the direction of stimulus presentation from descending to ascending or vice-versa, four additional data points were collected subsequent to the change. The resulting pattern of responses were tabulated and the 50% response threshold computer using the formula: log(threshold, mg×10)=Xf+kh\nwherein: • Xf=value of the last von Frey hair applied; • k=correction factor based on response pattern (from calibration table) • h=mean distance in log units between stimuli.\nBased on observations on normal, —operated rats and sham-operated rats, the cutoff of a 15.1-g hair is selected as the upper limit for testing.\nThe test was performed to establish an average baseline value, counted as time 0; then again at 15, 30, 60, 120 and 240 minutes after the dosing by the control saline solution or the test article."}}, "note": "Values joined by “and” are separate entries in the source; they are usually repeats but may differ in a detail not shown here. Equal entries are not always repeated."}
{"compound": "CC(=O)Oc1ccccc1C(=O)O", "note": "[Aspirin, reference compound]", "values": [{"measurement": "% Inh.", "setting": "[1]", "value": 72, "unit": "%"}, {"measurement": "Licking Time, Ave.", "setting": "[1]; 5 mice", "value": 36, "unit": "s"}, {"measurement": "No. of Writhes, X ± SEM", "setting": "[2]; group of 3 mice", "value": "X ± SEM 0 ± 0"}, {"measurement": "No. of Writhes (individual animal)", "setting": "[2]; one hour before acetic acid, 5 to 10 minute period", "value": 0}, {"measurement": "% Inh.", "setting": "[2]; relative to vehicle control", "value": 100, "unit": "%"}]}
{"compound": "CN1C(=O)CN=C(c2ccccc2)c2cc(Cl)ccc21", "note": "[Diazepam, reference compound]", "values": [{"measurement": "Head Twitch, Ave.", "setting": "[3]", "value": 2}]}
{"compound": "CN1CC[C@]23c4c5ccc(O)c4O[C@H]2[C@@H](O)C=C[C@H]3[C@H]1C5", "note": "[Morphine, reference compound]", "values": [{"measurement": "% Inh.", "setting": "[4]; 10 mg/kg IP", "value": 100, "unit": "%"}, {"measurement": "Response Time 30 Min. (individual animal)", "setting": "[4]; 10 mg/kg IP, 30 minutes after administration, cut-off 15 seconds", "value": ">15"}, {"measurement": "Response Time 30 Min., X", "setting": "[4]; 10 mg/kg IP, mean of 4 mice", "value": 15.0}, {"measurement": "Response Time 0 Min., X", "setting": "[4]; 10 mg/kg IP, mean of 4 mice, pretreatment", "value": 6.9}, {"measurement": "Response Time 0 Min. (individual animal)", "setting": "[4]; 10 mg/kg IP, pretreatment (0 minute)", "value": "7.4 (2×) and 6.5 and 6.4"}, {"measurement": "radiant heat induced tail flick response (in words)", "setting": "[4]; morphine control", "value": "positive response"}]}
{"compound": "CN[C@H](CC(=O)O)C(=O)O", "note": "[NMDA, N-methyl-D-aspartate, reference compound]", "values": [{"measurement": "Agonism (mice with convulsions/mortality within 5 minutes)", "setting": "[5]", "value": 3}]}
{"compound": "COC[C@@H](NC(C)=O)C(=O)NCc1ccc(F)cc1", "note": "[test article, (2R)-2-(acetylamino)-N-[(4-fluorophenyl)methyl]-3-methoxypropanamide]", "values": [{"measurement": "thermal escape latency, baseline maintained", "setting": "[6]; intrathecal 1 μg/10 μl 10 minutes prior to intrathecal NMDA, out to 20 minutes post NMDA injection, n=2", "value": "about 14 second"}, {"measurement": "thermal escape latency after dropping", "setting": "[6]; intrathecal 1 μg/10 μl, later than 20 minutes post NMDA injection, n=2", "value": "approximately 10 seconds"}, {"measurement": "anti-hyperalgesic action in NMDA induced thermal hyperalgesia (in words)", "setting": "[6]; preliminary data", "value": "measurable anti-hyperalgesic actions"}, {"measurement": "behavioral observation", "setting": "[7]; 30 mg/kg IP, one rat", "value": "no behavioral deficit"}, {"measurement": "behavioral observation", "setting": "[7]; 50 mg/kg IP, one rat, lasted 60 minutes", "value": "slightly catatonic"}, {"measurement": "behavioral observation", "setting": "[7]; 60 mg/kg IP, one rat, within 15 minutes, severe exopthalmos, euthanized", "value": "catatonic and displayed abnormal ambulation"}, {"measurement": "behavioral observation", "setting": "[7]; 90 mg/kg IP, one rat, within 15 minutes, flaccid, severe exopthalmos, euthanized", "value": "catatonic and unable to right itself"}, {"measurement": "behavioral observation", "setting": "[7]; 100 mg/kg IP, one rat, within 15 minutes, euthanized", "value": "laterally recumbent displaying seizures and bleeding from the nose"}, {"measurement": "behavioral observation", "setting": "[7]; Fifteen mg/kg, previously shown", "value": "no observable affect"}, {"measurement": "effect on the Chung Model (in words)", "setting": "[8]; 15 mg/kg, previous study", "value": "no effect"}, {"measurement": "tactile threshold after dosing (increase from approximately 2)", "setting": "[8]; 20 mg (per kg) IP, 6 rats", "value": "~5", "unit": "grams"}, {"measurement": "rats appearing sedated", "setting": "[8]; 30 mg IP, for approximately 1 hour", "value": "Four of 6"}, {"measurement": "tactile threshold after dosing (increase from approximately 2)", "setting": "[8]; 30 mg/kg IP, 6 rats", "value": "~5", "unit": "grams"}, {"measurement": "tactile threshold after dosing (increase from 2)", "setting": "[8]; 50 mg/kg IP, 6 rats", "value": 11, "unit": "grams"}, {"measurement": "rats appearing sedated", "setting": "[8]; 50 mg/kg IP, for approximately 1 hour post injection", "value": "6 of 6"}, {"measurement": "duration of effect after injection", "setting": "[8]; IP, Chung Model", "value": "approximately 2 hours"}, {"measurement": "reversal of tactile allodynia (in words)", "setting": "[8]; delivered intraperitoneally", "value": "significant reversal of tactile allodynia"}]}
